Results published in patent US20240240145A1, “METHODS AND COMPOSITIONS FOR GENERATING MITOCHONDRIA REPLACED LYMPHOID CELLS” (Imel Biotherapeutics, Inc., priority 2021, published 2024).

Experiments:
human GJ T cells = experiment: TaqMan SNP assay of transfer of EPC100 mitochondria to human GJ T cells cultured with rapamycin; format: cell-based; settings: for portion of donor mtDNA detected in T cells: after 7 days, EPC100 donor mitochondria
Description: Isolation and Cell Culture of Human T cells: Venous heparinized blood was taken according to the standard procedures from the median cubital vein. Human peripheral blood mononuclear cells (PBMC) were isolated from human peripheral blood using density-gradient centrifugation with 1.077 g/ml percoll (GE Healthcare Life Sciences, Buckinghamshire, England). Cells were cultured in TexMACS medium (Miltenyi Biotec) supplemented with 10% fetal bovine serum, 1% penicillin/streptomycin (Thermo Fisher Scientific incorporated), […] of IL-7, and […] of IL-15 on cell culture plates coated with anti-CD3 antibody and anti-CD28 antibody (Miltenyi Biotec). Cells were incubated at 37° C. in a humidified 5% CO2 incubator.
Mitochondrial Isolation and Transfer to Human T cells: The immortalized human uterine endometrial gland-derived mesenchymal cell line, EPC100 (Japanese Collection of Research Bioresources Cell Bank, JCRB1538) was used as an exemplary donor of exogenous mitochondria for mitochondrial transfer to human primary T cells by using the same protocol as that of murine protocol.
TaqMan Single Nucleotide Polymorphism (SNP) Assay: Based upon the differences in the mitochondrial HVR1 sequences of human GJ T cells and EPC100 cells, and the mitochondrial ND1 of B6 mouse and NZB mouse, the probes and primer set forth in Tables 1 and 2 were designed, which provide sensitivity and specificity in the TaqMan SNP assay. To determine mutation ratios, we designed wild-type and mutant allele-specific TaqMan probes for the TaqMan SNP assay. The extracted DNA (1 ng) was used for quantitative PCR with the TaqMan Universal PCR Master Mix kit (Thermo Fisher Scientific Incorporated) on a CFX connect real-time system (Bio-Rad Laboratories, Incorporated) under the following conditions: 40 cycles of PCR (95° ° C. for 15 see and 60° ° C. for 1 min) after initial denaturation (95° ° C. for 10 min). […] The mtDNA copy number was estimated from the content ratio of 12S rRNA on mtDNA and ACTB (or Actb) on nuclear DNA by delta cycle threshold-based relative quantification. […]

mouse NZB T cells = experiment: TaqMan SNP assay of replacement of NZB T cell mtDNA with B6 MEF mtDNA after culture with rapamycin; format: cell-based; settings: 40 μg B6 MEF mitochondria
Description: Isolation and Cell Culture of Primary Mouse T lymphocytes: All the animal experiments were performed according to the animal experiment guidelines issued by the Animal Care and Use Committee of our institution (M2019-536). For mouse T lymphocytes isolation, spleens were removed from mouse after anesthetized and sacrificed. Spleens were washed with PBS (FUJIFILM Wako Pure Chemical Corp.), then mashed and filtrated to extract splenocytes. Mouse T cells were highly purified from splenocytes by immunomagnetic negative selection using EasySep mouse T cell isolation kit (Veritas, Santa Clara, CA, USA) according to the manufacturer's recommendations. Isolated mouse T cells were cultured in Advanced RPMI1640 medium supplemented with 10% FBS, 1% penicillin/streptomycin, 20 mM L-glutamine (Thermo Fisher Scientific incorporated), […] recombinant human IL-2 (PeproTech, Rocky Hill, NJ, USA), which is activated with Dynabeads mouse T-activator CD3/CD28 (Thermo Fisher Scientific incorporated). Cells were incubated at 37 °C in a humidified 5% CO2 incubator.
Mitochondrial Isolation and Transfer to Mouse T cells: Mitochondria were isolated from B6 murine embryonic fibroblasts (MEF). […] The amounts of isolated mitochondria were expressed as protein concentration using a Bio-Rad protein assay kit (Bio-Rad Laboratories, incorporated, Richmond, CA, USA). […]

CO[C@H]1C[C@@H]2CC[C@@H](C)[C@@](O)(O2)C(=O)C(=O)N2CCCC[C@H]2C(=O)O[C@H]([C@H](C)C[C@@H]2CC[C@@H](O)[C@H](OC)C2)CC(=O)[C@H](C)/C=C(\C)[C@@H](O)[C@@H](OC)C(=O)[C@H](C)C[C@H](C)/C=C/C=C/C=C/1C [rapamycin]
portion of donor mtDNA detected in T cells (human GJ T cells; 50 nM rapamycin): less than 40%
portion of donor mtDNA detected in T cells (human GJ T cells; 500 nM rapamycin): approximately 50%
mtDNA content in T cells consisting of mtDNA from EPC100 cells (human GJ T cells; human GJ T cells contacted with EPC100 donor mitochondria in the presence of rapamycin (50 to 500 nM), no mtDNA depletion, FIG. 3B): 40-50%
donor mtDNA in the recipient T cells (mouse NZB T cells; centrifugation and two days of rapamycin treatment (100-1000 nM), FIG. 5A): 45-80%
donor mtDNA in the recipient T cells (mouse NZB T cells; day 7, rapamycin 100-1000 nM, FIG. 5B): 70-90%
